{
  "source": "ChEMBL document CHEMBL1152493",
  "about": "“CoMFA and docking studies of 2-phenylindole derivatives with anticancer activity” (Eur J Med Chem, 2009)",
  "data": [
    {"system": "MDA-MB-231", "experiment": "(§1) Cytotoxicity against human MDA-MB-231 cells", "type": "functional, cell-based", "settings": "read-out: IC50", "units": {"IC50": "nM"}, "values": [
      {"smiles": "COc1ccc2c(C=O)c(-c3ccccc3)[nH]c2c1", "IC50": 240},
      {"smiles": "COc1ccc(-c2[nH]c3cc(OC)c(OC)cc3c2C=O)cc1", "IC50": 220},
      {"smiles": "CCC(C)c1ccc2[nH]c(-c3ccc(OC)cc3)c(C=O)c2c1", "note": "(stereo unspecified)", "IC50": 72}
    ]},
    {"system": "MDA-MB-231", "experiment": "as §1", "type": "functional, cell-based", "settings": "read-out: pIC50 (converted)", "units": {"IC50": "nM"}, "values": [
      {"smiles": "COc1ccc2c(C=O)c(-c3ccccc3)[nH]c2c1", "IC50": 240},
      {"smiles": "COc1ccc(-c2[nH]c3cc(OC)c(OC)cc3c2C=O)cc1", "IC50": 220},
      {"smiles": "CCC(C)c1ccc2[nH]c(-c3ccc(OC)cc3)c(C=O)c2c1", "note": "(stereo unspecified)", "IC50": 71.9}
    ]}
  ]
}
